Source: publication PMC9639207 (RSC Advances, 2022)

Columns and labels:
[1] = target: dipeptidyl peptidase-IV (DPP-IV) (Homo sapiens, UniProt P27487); experiment: In vitro proteolytic stability against DPP-IV; format: in vitro ADME; details: for half-life: isolated enzyme dpp iv, pH 7.4
[2] = In vitro stability on incubation with mouse serum; format: in vitro ADME; details: for half-life at 200 µM: mouse, serum

Sequence of dipeptidyl peptidase-IV (DPP-IV) (P27487 whole entry, species assumed): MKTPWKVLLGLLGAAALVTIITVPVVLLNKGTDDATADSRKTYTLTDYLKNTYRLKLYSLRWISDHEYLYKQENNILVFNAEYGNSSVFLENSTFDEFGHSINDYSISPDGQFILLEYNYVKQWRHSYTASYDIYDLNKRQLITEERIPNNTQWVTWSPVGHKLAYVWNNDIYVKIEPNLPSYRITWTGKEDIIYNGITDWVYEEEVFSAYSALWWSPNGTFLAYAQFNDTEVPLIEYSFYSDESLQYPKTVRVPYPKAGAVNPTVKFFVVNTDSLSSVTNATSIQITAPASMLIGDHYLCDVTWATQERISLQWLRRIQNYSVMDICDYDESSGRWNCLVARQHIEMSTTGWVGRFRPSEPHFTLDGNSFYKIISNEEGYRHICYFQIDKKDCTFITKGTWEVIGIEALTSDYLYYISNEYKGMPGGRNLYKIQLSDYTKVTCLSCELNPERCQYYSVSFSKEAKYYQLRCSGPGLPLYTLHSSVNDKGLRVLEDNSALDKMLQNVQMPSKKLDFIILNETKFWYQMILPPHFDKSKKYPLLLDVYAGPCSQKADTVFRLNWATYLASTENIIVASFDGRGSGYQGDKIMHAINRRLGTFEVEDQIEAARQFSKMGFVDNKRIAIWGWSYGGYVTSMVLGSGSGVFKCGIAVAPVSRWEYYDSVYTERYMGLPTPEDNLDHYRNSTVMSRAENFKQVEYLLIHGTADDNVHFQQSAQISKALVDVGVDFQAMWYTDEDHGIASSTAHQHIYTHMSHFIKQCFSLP

SMILES	half-life [1] [h]	half-life at 200 µM [2] [h]	Fold in vitro half-life relative to native GLP-1, DPP-IV incubation ([1]; ratio to native GLP-1 (10.2 min), DPP-IV, 37 °C) [fold]	Fold in vitro half-life relative to native GLP-1, serum incubation ([2]; ratio to native GLP-1 (55.7 min), mouse serum, 37 °C) [fold]
CC[C@H](C)[C@H](NC(=O)[C@H](Cc1ccccc1)NC(=O)[C@H](CCC(=O)O)NC(=O)[C@H](CCCCN)NC(=O)[C@H](C)NC(=O)[C@H](C)NC(=O)[C@H](CCC(N)=O)NC(=O)CNC(=O)[C@H](CCC(=O)O)NC(=O)[C@H](CC(C)C)NC(=O)[C@H](Cc1ccc(O)cc1)NC(=O)[C@H](CO)NC(=O)[C@H](CO)NC(=O)[C@@H](NC(=O)[C@H](CC(=O)N[C@@H]1O[C@H](CO)[C@@H](O)[C@H](O)[C@H]1O)NC(=O)[C@H](CO)NC(=O)[C@@H](NC(=O)[C@H](Cc1ccccc1)NC(=O)[C@@H](NC(=O)CNC(=O)[C@H](CCC(=O)O)NC(=O)[C@H](C)NC(=O)[C@@H](N)Cc1c[nH]cn1)[C@@H](C)O)[C@@H](C)O)C(C)C)C(=O)N[C@@H](C)C(=O)N[C@@H](Cc1c[nH]c2ccccc12)C(=O)N[C@@H](CC(C)C)C(=O)N[C@H](C(=O)N[C@@H](CCCCN)C(=O)NCC(=O)N[C@@H](CCCNC(=N)N)C(=O)NCC(=O)O)C(C)C [Glc-GLP-1-1]	0.503 ± 0.04	1.57 ± 0.127	–	–
CC[C@H](C)[C@H](NC(=O)[C@H](CO)NC(=O)[C@H](CCC(=O)O)NC(=O)[C@H](CC(=O)N[C@@H]1O[C@H](CO)[C@@H](O)[C@H](O)[C@H]1O)NC(=O)[C@H](C)NC(=O)[C@H](C)NC(=O)[C@H](CCC(N)=O)NC(=O)CNC(=O)[C@H](CCC(=O)O)NC(=O)[C@H](CC(C)C)NC(=O)[C@H](Cc1ccc(O)cc1)NC(=O)[C@H](CO)NC(=O)[C@H](CO)NC(=O)[C@@H](NC(=O)[C@H](CC(=O)O)NC(=O)[C@H](CO)NC(=O)[C@@H](NC(=O)[C@H](Cc1ccccc1)NC(=O)[C@@H](NC(=O)CNC(=O)[C@H](CCC(=O)O)NC(=O)[C@H](C)NC(=O)[C@@H](N)Cc1c[nH]cn1)[C@@H](C)O)[C@@H](C)O)C(C)C)C(=O)N[C@@H](C)C(=O)N[C@@H](Cc1c[nH]c2ccccc12)C(=O)N[C@@H](CC(C)C)C(=O)N[C@H](C(=O)N[C@@H](CCCCN)C(=O)NCC(=O)N[C@@H](CCCNC(=N)N)C(=O)NCC(=O)O)C(C)C [Glc-GLP-1-3]	0.768 ± 0.0583	2.31 ± 0.242	–	–
CC[C@H](C)[C@H](NC(=O)[C@H](Cc1ccccc1)NC(=O)[C@H](CCC(=O)O)NC(=O)[C@H](CCCCN)NC(=O)[C@H](C)NC(=O)[C@H](C)NC(=O)[C@H](CCC(N)=O)NC(=O)CNC(=O)[C@H](CCC(=O)O)NC(=O)[C@H](CC(C)C)NC(=O)[C@H](Cc1ccc(O)cc1)NC(=O)[C@H](CO)NC(=O)[C@H](CO)NC(=O)[C@@H](NC(=O)[C@H](CC(=O)O)NC(=O)[C@H](CO)NC(=O)[C@@H](NC(=O)[C@H](Cc1ccccc1)NC(=O)[C@@H](NC(=O)CNC(=O)[C@H](CCC(=O)O)NC(=O)[C@H](C)NC(=O)[C@@H](N)Cc1c[nH]cn1)[C@@H](C)O)[C@@H](C)O)C(C)C)C(=O)N[C@@H](C)C(=O)N[C@@H](Cc1c[nH]c2ccccc12)C(=O)N[C@@H](CC(C)C)C(=O)N[C@H](C(=O)N[C@@H](CC(=O)N[C@@H]1O[C@H](CO)[C@@H](O)[C@H](O)[C@H]1O)C(=O)NCC(=O)N[C@H](C(=O)NCC(=O)O)[C@@H](C)O)C(C)C [Glc-GLP-1-5]	0.542 ± 0.0233	1.89 ± 0.197	–	–
CC[C@H](C)[C@H](NC(=O)[C@H](Cc1ccccc1)NC(=O)[C@H](CCC(=O)O)NC(=O)[C@H](CCCCN)NC(=O)[C@H](C)NC(=O)[C@H](C)NC(=O)[C@H](CCC(N)=O)NC(=O)CNC(=O)[C@H](CCC(=O)O)NC(=O)[C@H](CC(C)C)NC(=O)[C@H](Cc1ccc(O)cc1)NC(=O)[C@H](CO)NC(=O)[C@H](CO)NC(=O)[C@@H](NC(=O)[C@H](CC(=O)N[C@@H]1O[C@H](CO)[C@@H](O[C@@H]2O[C@H](CO)[C@@H](O[C@@H]3O[C@H](CO[C@H]4O[C@H](CO)[C@@H](O)[C@H](O)[C@@H]4O[C@@H]4O[C@H](CO)[C@@H](O[C@@H]5O[C@H](CO)[C@H](O)[C@H](O)[C@H]5O)[C@H](O)[C@H]4NC(C)=O)[C@@H](O)[C@H](O[C@H]4O[C@H](CO)[C@@H](O)[C@H](O)[C@@H]4O[C@@H]4O[C@H](CO)[C@@H](O[C@@H]5O[C@H](CO)[C@H](O)[C@H](O)[C@H]5O)[C@H](O)[C@H]4NC(C)=O)[C@@H]3O)[C@H](O)[C@H]2NC(C)=O)[C@H](O)[C@H]1O)NC(=O)[C@H](CO)NC(=O)[C@@H](NC(=O)[C@H](Cc1ccccc1)NC(=O)[C@@H](NC(=O)CNC(=O)[C@H](CCC(=O)O)NC(=O)[C@H](C)NC(=O)[C@@H](N)Cc1c[nH]cn1)[C@@H](C)O)[C@@H](C)O)C(C)C)C(=O)N[C@@H](C)C(=O)N[C@@H](Cc1c[nH]c2ccccc12)C(=O)N[C@@H](CC(C)C)C(=O)N[C@H](C(=O)N[C@@H](CCCCN)C(=O)NCC(=O)N[C@@H](CCCNC(=N)N)C(=O)NCC(=O)O)C(C)C [Glycan-GLP-1-1(G2)]	0.818 ± 0.095	5.92 ± 0.155	–	–
CC[C@H](C)[C@H](NC(=O)[C@H](Cc1ccccc1)NC(=O)[C@H](CCC(=O)O)NC(=O)[C@H](CCCCN)NC(=O)[C@H](C)NC(=O)[C@H](C)NC(=O)[C@H](CCC(N)=O)NC(=O)CNC(=O)[C@H](CCC(=O)O)NC(=O)[C@H](CC(C)C)NC(=O)[C@H](Cc1ccc(O)cc1)NC(=O)[C@H](CO)NC(=O)[C@H](CO)NC(=O)[C@@H](NC(=O)[C@H](CC(=O)N[C@@H]1O[C@H](CO)[C@@H](O[C@@H]2O[C@H](CO)[C@@H](O[C@@H]3O[C@H](CO[C@H]4O[C@H](CO)[C@@H](O)[C@H](O)[C@@H]4O[C@@H]4O[C@H](CO)[C@@H](O[C@@H]5O[C@H](CO[C@]6(C(=O)O)C[C@H](O)[C@@H](NC(C)=O)[C@H]([C@H](O)[C@H](O)CO)O6)[C@H](O)[C@H](O)[C@H]5O)[C@H](O)[C@H]4NC(C)=O)[C@@H](O)[C@H](O[C@H]4O[C@H](CO)[C@@H](O)[C@H](O)[C@@H]4O[C@@H]4O[C@H](CO)[C@@H](O[C@@H]5O[C@H](CO[C@]6(C(=O)O)C[C@H](O)[C@@H](NC(C)=O)[C@H]([C@H](O)[C@H](O)CO)O6)[C@H](O)[C@H](O)[C@H]5O)[C@H](O)[C@H]4NC(C)=O)[C@@H]3O)[C@H](O)[C@H]2NC(C)=O)[C@H](O)[C@H]1O)NC(=O)[C@H](CO)NC(=O)[C@@H](NC(=O)[C@H](Cc1ccccc1)NC(=O)[C@@H](NC(=O)CNC(=O)[C@H](CCC(=O)O)NC(=O)[C@H](C)NC(=O)[C@@H](N)Cc1c[nH]cn1)[C@@H](C)O)[C@@H](C)O)C(C)C)C(=O)N[C@@H](C)C(=O)N[C@@H](Cc1c[nH]c2ccccc12)C(=O)N[C@@H](CC(C)C)C(=O)N[C@H](C(=O)N[C@@H](CCCCN)C(=O)NCC(=O)N[C@@H](CCCNC(=N)N)C(=O)NCC(=O)O)C(C)C [Glycan-GLP-1-1(G2S2)]	2.43 ± 0.0717	12.3 ± 0.205	–	–
CC[C@H](C)[C@H](NC(=O)[C@H](CO)NC(=O)[C@H](CCC(=O)O)NC(=O)[C@H](CC(=O)N[C@@H]1O[C@H](CO)[C@@H](O[C@@H]2O[C@H](CO)[C@@H](O[C@@H]3O[C@H](CO[C@H]4O[C@H](CO)[C@@H](O)[C@H](O)[C@@H]4O[C@@H]4O[C@H](CO)[C@@H](O[C@@H]5O[C@H](CO)[C@H](O)[C@H](O)[C@H]5O)[C@H](O)[C@H]4NC(C)=O)[C@@H](O)[C@H](O[C@H]4O[C@H](CO)[C@@H](O)[C@H](O)[C@@H]4O[C@@H]4O[C@H](CO)[C@@H](O[C@@H]5O[C@H](CO)[C@H](O)[C@H](O)[C@H]5O)[C@H](O)[C@H]4NC(C)=O)[C@@H]3O)[C@H](O)[C@H]2NC(C)=O)[C@H](O)[C@H]1O)NC(=O)[C@H](C)NC(=O)[C@H](C)NC(=O)[C@H](CCC(N)=O)NC(=O)CNC(=O)[C@H](CCC(=O)O)NC(=O)[C@H](CC(C)C)NC(=O)[C@H](Cc1ccc(O)cc1)NC(=O)[C@H](CO)NC(=O)[C@H](CO)NC(=O)[C@@H](NC(=O)[C@H](CC(=O)O)NC(=O)[C@H](CO)NC(=O)[C@@H](NC(=O)[C@H](Cc1ccccc1)NC(=O)[C@@H](NC(=O)CNC(=O)[C@H](CCC(=O)O)NC(=O)[C@H](C)NC(=O)[C@@H](N)Cc1c[nH]cn1)[C@@H](C)O)[C@@H](C)O)C(C)C)C(=O)N[C@@H](C)C(=O)N[C@@H](Cc1c[nH]c2ccccc12)C(=O)N[C@@H](CC(C)C)C(=O)N[C@H](C(=O)N[C@@H](CCCCN)C(=O)NCC(=O)N[C@@H](CCCNC(=N)N)C(=O)NCC(=O)O)C(C)C [Glycan-GLP-1-3(G2)]	3.088 ± 0.0183	12.3 ± 0.162	–	–
CC[C@H](C)[C@H](NC(=O)[C@H](CO)NC(=O)[C@H](CCC(=O)O)NC(=O)[C@H](CC(=O)N[C@@H]1O[C@H](CO)[C@@H](O[C@@H]2O[C@H](CO)[C@@H](O[C@@H]3O[C@H](CO[C@H]4O[C@H](CO)[C@@H](O)[C@H](O)[C@@H]4O[C@@H]4O[C@H](CO)[C@@H](O[C@@H]5O[C@H](CO[C@]6(C(=O)O)C[C@H](O)[C@@H](NC(C)=O)[C@H]([C@H](O)[C@H](O)CO)O6)[C@H](O)[C@H](O)[C@H]5O)[C@H](O)[C@H]4NC(C)=O)[C@@H](O)[C@H](O[C@H]4O[C@H](CO)[C@@H](O)[C@H](O)[C@@H]4O[C@@H]4O[C@H](CO)[C@@H](O[C@@H]5O[C@H](CO[C@]6(C(=O)O)C[C@H](O)[C@@H](NC(C)=O)[C@H]([C@H](O)[C@H](O)CO)O6)[C@H](O)[C@H](O)[C@H]5O)[C@H](O)[C@H]4NC(C)=O)[C@@H]3O)[C@H](O)[C@H]2NC(C)=O)[C@H](O)[C@H]1O)NC(=O)[C@H](C)NC(=O)[C@H](C)NC(=O)[C@H](CCC(N)=O)NC(=O)CNC(=O)[C@H](CCC(=O)O)NC(=O)[C@H](CC(C)C)NC(=O)[C@H](Cc1ccc(O)cc1)NC(=O)[C@H](CO)NC(=O)[C@H](CO)NC(=O)[C@@H](NC(=O)[C@H](CC(=O)O)NC(=O)[C@H](CO)NC(=O)[C@@H](NC(=O)[C@H](Cc1ccccc1)NC(=O)[C@@H](NC(=O)CNC(=O)[C@H](CCC(=O)O)NC(=O)[C@H](C)NC(=O)[C@@H](N)Cc1c[nH]cn1)[C@@H](C)O)[C@@H](C)O)C(C)C)C(=O)N[C@@H](C)C(=O)N[C@@H](Cc1c[nH]c2ccccc12)C(=O)N[C@@H](CC(C)C)C(=O)N[C@H](C(=O)N[C@@H](CCCCN)C(=O)NCC(=O)N[C@@H](CCCNC(=N)N)C(=O)NCC(=O)O)C(C)C [Glycan-GLP-1-3(G2S2)]	6.245 ± 0.03	23.22 ± 0.148	36.7	25.0
